Reference: paper doi:10.1101/2023.02.27.530254, “Large library docking for cannabinoid-1 receptor agonists with reduced side effects” (bioRxiv, 2024)
Where two headings read alike, the source gives them in different places.

Legend:
hCB2 = hCB2 (Homo sapiens, UniProt P34972); test: bioSens-All ebBRET effector biosensor signaling profiling, HEK293; type: cell-based; parameters: host or cells: HEK293 (HEK293SL clone), transient
Method: (§1) ebBRET-based effector membrane translocation biosensor assays were conducted at Domain Therapeutics NA Inc. (Montreal, QC, Canada) as previously described. […] HEK293 cells were maintained in Dulbecco’s Modified Eagle Medium (DMEM) (Wisent) supplemented with 1% penicillin- streptomycin (Wisent) and 10% (or 2 % for transfection) fetal bovine serum (Wisent) at 37°C with 5% CO2. All biosensor-coding plasmids and related information are the property of Domain Therapeutics NA Inc. The total amount of transfected DNA was adjusted and kept constant at 1 μg per mL of cell culture to be transfected using salmon sperm DNA (Invitrogen) as ‘carrier’ DNA, PEI (polyethylenimine 25 kDa linear, PolyScience) and DNA (3:1 ml PEI:mg DNA ratio) were first diluted separately in 150 mM NaCl then mixed and incubated for at least 20 minutes at room temperature to allow for the formation of DNA/PEI complexes. During the incubation, HEK293 cells were detached, counted, and re-suspended in maintenance medium to a 350,000 cells per mL density. At the end of the incubation period, the DNA/PEI mixture was added to the cells. Cells were finally distributed in 96-well plates (White Opaque 96-well /Microplates, Greiner) at a density of 35,000 cells per well. Forty-eight hours post-transfection, medium was aspirated and replaced with 100 μl of Hank’s Balanced Salt Solution buffer (HBSS) (Wisent) per well using 450-Select TS Biotek plate washer. After 60 min incubation in this medium, 10 μL of 10 μM e-Coelenterazine Prolume Purple (Methoxy e-CTZ) (Nanolight) was added to each well for a final concentration of 1 μM immediately followed by addition of increasing concentrations of the test compounds to each well using the HP D300 digital dispenser (Tecan). All compounds were assayed at 22 concentrations with each biosensor after a 10-minute room temperature incubation period. […] All BRET ratios were standardized using the universal BRET (uBRET) equation: uBRET=BRETratio-A/B-A×10,000 where A is the BRET ratio obtained from transfection of negative control and B is the BRET ratio obtained from transfection of positive control. […] The data were analyzed using the four-parameter logistic non-linear regression model in GraphPad Prism 9.1 and data were presented as means ± CIs of 1–4 independent experiments.
(§2) The SEM was calculated for the logEmax/EC50 ratios using the following equation: SEM=σ/n where σ is the standard deviation, and n is the number of experiments.

CB1 = biological target: T1, CB1 (Rattus norvegicus, UniProt P20272); test: Radioligand competition binding with [3H]-CP-55,940, rat brain membranes; settings: for % [3H]-CP-55,940 displacement (mean) from single point screen: screens at 10 μM (white cells), 1 μM (orange) or 300 nM (green), cell colours not visible; for Emax: maximal radioligand displacement, read-out: rCB1 binding Emax [SEM]; for Ki: [3H]-CP-55,940 competition, rat brain membranes
T1 construct: membrane preparations from rat brain (source of CB1); tissue Bioivt RAT00BRAINMZN; host or cells: rat brain
T1 sequence (P20272 whole entry): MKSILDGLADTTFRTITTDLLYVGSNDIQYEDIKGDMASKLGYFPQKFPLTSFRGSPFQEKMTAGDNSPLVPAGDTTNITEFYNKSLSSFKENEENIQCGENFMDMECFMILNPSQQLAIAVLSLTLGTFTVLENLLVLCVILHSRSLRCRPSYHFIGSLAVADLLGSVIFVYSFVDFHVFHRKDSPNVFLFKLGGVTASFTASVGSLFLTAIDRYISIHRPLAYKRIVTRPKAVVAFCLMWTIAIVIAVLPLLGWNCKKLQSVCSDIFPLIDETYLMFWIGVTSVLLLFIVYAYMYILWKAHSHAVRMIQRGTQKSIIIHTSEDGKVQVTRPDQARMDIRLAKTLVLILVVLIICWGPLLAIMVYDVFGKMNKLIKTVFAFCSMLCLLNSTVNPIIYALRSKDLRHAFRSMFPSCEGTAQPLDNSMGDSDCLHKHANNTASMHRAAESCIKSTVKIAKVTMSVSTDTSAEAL
Method: The results were analyzed using nonlinear regression to determine the IC50 and Ki values for each ligand (Prism by GraphPad Software, Inc., San Diego, CA). The Ki values are expressed as the mean of two to three experiments each performed in triplicate.

C56BL/6 mice = test: Catalepsy test (vertical wire mesh); type: in vivo, mouse; settings: non-cannabinoid positive control
Method: Thirty and 60 minutes after an i.p. injection of the compounds, mice were placed on a vertical wire mesh and the latency to move all four paws was recorded.

hCB1 = hCB1 (Homo sapiens, UniProt P21554); test: bioSens-All ebBRET effector biosensor signaling profiling, HEK293; type: cell-based; parameters: host or cells: HEK293 (HEK293SL clone), transient
Sequence of hCB1 (P21554 whole entry): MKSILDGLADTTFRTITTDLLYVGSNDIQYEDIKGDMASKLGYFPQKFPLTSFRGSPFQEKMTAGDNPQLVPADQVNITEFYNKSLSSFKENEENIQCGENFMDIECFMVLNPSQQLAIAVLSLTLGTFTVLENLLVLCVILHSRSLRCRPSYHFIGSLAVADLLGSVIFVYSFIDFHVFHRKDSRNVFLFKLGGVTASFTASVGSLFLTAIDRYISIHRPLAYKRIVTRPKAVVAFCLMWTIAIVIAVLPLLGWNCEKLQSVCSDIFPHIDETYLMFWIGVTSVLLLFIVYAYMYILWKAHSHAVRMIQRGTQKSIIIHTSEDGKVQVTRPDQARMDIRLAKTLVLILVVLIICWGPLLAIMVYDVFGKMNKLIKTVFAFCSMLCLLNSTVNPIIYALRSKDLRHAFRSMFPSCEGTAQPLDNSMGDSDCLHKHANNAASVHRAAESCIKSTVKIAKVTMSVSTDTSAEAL
Method: as §1, §2

[1] = HEK293, read-out: hCB1 Gi1 Emax [95% CI]
[2] = HEK293, read-out: hCB1 GoB Emax [95% CI]
[3] = HEK293, read-out: hCB1 Gz Emax [95% CI]
[4] = hCB1 GoB EC50 [95% CI], GoB sensor

Sequence of hCB2 (P34972 whole entry, the tested form may be a part): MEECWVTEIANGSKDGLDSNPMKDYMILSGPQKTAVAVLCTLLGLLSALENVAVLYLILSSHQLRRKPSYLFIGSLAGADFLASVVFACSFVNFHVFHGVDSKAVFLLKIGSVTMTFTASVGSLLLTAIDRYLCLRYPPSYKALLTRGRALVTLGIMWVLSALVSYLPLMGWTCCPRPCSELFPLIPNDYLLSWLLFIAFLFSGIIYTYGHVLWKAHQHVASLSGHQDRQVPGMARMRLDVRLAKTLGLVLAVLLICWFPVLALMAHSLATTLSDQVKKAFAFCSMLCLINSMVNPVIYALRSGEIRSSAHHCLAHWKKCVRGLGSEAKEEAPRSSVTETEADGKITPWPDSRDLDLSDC

SMILES | Emax (CB1) [%] | Ki (CB1; rCB1 binding Ki [95% CI]) [nM] | Emax (hCB1; [1]) [%] | Emax (hCB1; [2]) [%] | Emax (hCB1; [3]) [%] | EC50 (hCB1; hCB1 Gi1 EC50 [95% CI]) [nM] | EC50 (hCB1; hCB1 Gz EC50 [95% CI]) [nM] | other results
CCCCC/C=C\C/C=C\C/C=C\C/C=C\CCCC(=O)OC(CO)CO [2-AG, reference compound] | – | – | – | – | – | – | – | hCB2 Gi1 pEC50 [95% CI] (hCB2; Gi1 sensor): 6.66 [6.6 – 6.7]; hCB2 Gi2 pEC50 [95% CI] (hCB2; Gi2 sensor): 7.0 [6.9 – 7.2]; hCB2 Gi2 Emax [95% CI] (hCB2; Gi2 sensor, normalized to CP-55,940): 78 [74 – 84]; hCB2 GoB pEC50 [95% CI] (hCB2; GoB sensor): 6.4 [6.3 – 6.5]; hCB2 GoB Emax [95% CI] (hCB2; GoB sensor, normalized to CP-55,940): 101 [98 – 104]; hCB2 Gz pEC50 [95% CI] (hCB2; Gz sensor): 5.7 [4.1 – 6.0]; hCB2 Gz Emax [95% CI] (hCB2; Gz sensor, normalized to CP-55,940): 96 [76 – 233]; EC50 (hCB2; read-out: hCB2 Barr2 + GRK2 EC50 [95% CI], ßarrestin-2 sensor with GRK2): 1850 nM; EC50 (hCB2; read-out: hCB2 Gi1 EC50 [95% CI], Gi1 sensor): 217 nM; EC50 (hCB2; read-out: hCB2 Gi2 EC50 [95% CI], Gi2 sensor): 96 nM; EC50 (hCB2; read-out: hCB2 GoB EC50 [95% CI], GoB sensor): 394 nM; EC50 (hCB2; read-out: hCB2 Gz EC50 [95% CI], Gz sensor): 2120 nM; hCB2 Barr2 + GRK2 pEC50 [95% CI] (hCB2; ßarrestin-2 sensor with GRK2): 5.7 [5.4 – 6.0]; hCB2 Barr2 + GRK2 Emax [95% CI] (hCB2; ßarrestin-2 sensor with GRK2, normalized to CP-55,940): 118 [104 – 140]
Cc1cc(C(=O)N2CC3(CCC3)[C@@H]3COC[C@@H]32)nn1-c1cccc(C(F)(F)F)c1 [10_14] | – | – | – | – | – | – | – | % [3H]-CP-55,940 displacement (mean) from single point screen (CB1): 91.30%
COC(=O)[C@@H]1[C@@H]2CCC[C@@H]2CN1C(=O)c1nn(-c2cccc(C(F)(F)F)c2)c2c1CCC2 [10_17] | – | – | – | – | – | – | – | % [3H]-CP-55,940 displacement (mean) from single point screen (CB1): 98.24%
CCCCCCC(C)(C)c1cc(O)c2c(c1)OC(C)(C)C1CCC(=O)CC21 (stereo not drawn) [Nabilone, reference compound] | 81 | – | – | – | – | – | – | Ki (CB1; rCB1 binding pKi [95% CI]): 2.51 nM
N#Cc1cccc(OCc2ccoc2C(=O)OCC2CSc3ccccc3O2)c1 (stereo not drawn) [compound 5424] | 104 | 876 | – | – | – | – | – | % [3H]-CP-55,940 displacement (mean) from single point screen (CB1; listed as 7019_31): 80.66%
O=C(CCCN1CCC(O)(c2ccc(Cl)cc2)CC1)c1ccc(F)cc1 [haloperidol, reference compound] | – | – | – | – | – | – | – | catalepsy (C56BL/6 mice): dramatic catalepsy
COC(=O)[C@H](c1cccs1)N(C)C(=O)c1cc(C)n(-c2cccc(C(F)(F)F)c2)n1 [‘1066] | 97 | 1720 | – | – | – | – | – | –
Cc1cc(C(=O)NC(c2ccccc2)c2ccco2)nn1-c1cccc(C(F)(F)F)c1 (stereo not drawn) [‘1081] | 96 | 116 | 49 | 45 | 72 | 150 | 225 | EC50 (hCB1; [4]): 91.7 nM; EC50 (hCB1; hCB1 Gz pEC50 [95% CI]): 200 nM
Cc1cc(C(=O)N(C)C(c2ccccc2)c2ccco2)nn1-c1cccc(C(F)(F)F)c1 (stereo not drawn) [‘1082] | 94 | 850 | – | – | – | – | – | –
Cc1cc(C(=O)NC(c2ccco2)c2ccco2)nn1-c1cccc(C(F)(F)F)c1 [‘1090] | 99 | 90.8 | 81 | 90 | 115 | – | 126 | EC50 (hCB1; hCB1 Gi1 EC50 [95% CI], Gi1 sensor): 35.6 nM; EC50 (hCB1; hCB1 Gi1 pEC50 [95% CI], Gi1 sensor): 31.6 nM; EC50 (hCB1; [4]): 37.3 nM
Cn1nc(-c2nnc(C(C)(C)Oc3ccc(C(F)(F)F)cc3)o2)c2ccccc2c1=O [‘2153] | 82.6 | 163 | 89 | 109 | – | 1010 | – | EC50 (hCB1; hCB1 GoB EC50 [95% CI]): 2060 nM
Cc1cc(C(=O)N2CC3(CCC3)[C@H]2[C@@H]2CCCO2)nn1-c1cccc(C(F)(F)F)c1 [‘3737a] | – | – | 98 | 118 | 140 | 2800 | 2470 | EC50 (hCB1; hCB1 GoB EC50 [95% CI]): 6730 nM; EC50 (hCB1; hCB1 Gz pEC50 [95% CI]): 2510 nM
Cc1cc(C(=O)N2CC3(CCC3)[C@H]2[C@H]2CCCO2)nn1-c1cccc(C(F)(F)F)c1 [‘3737b] | – | – | 89 | 152 | 231 | 3030 | 30800 | EC50 (hCB1; hCB1 GoB EC50 [95% CI]): 19800 nM
